Source: patent publication US11016062B2, “System and method of measuring cell viability and growth” (University of South Florida, priority 2015, dated 2021)

Key:
BT474-MCTs = assay: Sensitivity of BT474 multi-cell tumoroids (MCTs, co-culture with ECs and CAFs) on PNS to lapatinib, PrestoBlue cell viability; format: cell-based; conditions: Homo sapiens, BT-474, BT474-MCTs in the presence of ECs and CAFs on PNS, lapatinib 72 h
Protocol: (§1) FIGS. 9A-C are a series of images depicting growth of BT474 derived SCTs (A) and MCTs (B) for 6 days on PNS; tumoroids are stained with calcein AM/EthD-1. Confocal (merged z-stacked) images showing presence of ECs (vWF, green cells), CAFs (SMA positive, red cells) and DAPI (cell nuclei) in BT474-MCTs imaged by confocal microscopy (merged z-stacked images). (C) Differential response of BT474-SCTs and -MCTs to lapatinib. On day 2 after co-culture, BT474 cells were treated with increasing concentrations (μM) of lapatinib for 72 h; cell viability was measured by PrestoBlue assay.
The inventors established conditions to co-culture tumor cells with ECs and CAFs to allow formation of robust MCTs. […] The presence of CAFs and ECs in the MCTs was confirmed by immunohistochemistry using anti-smooth muscle actin (SMA) and antivon Willebrand factor (vWF) antibodies for CAFs and ECs, respectively, followed by confocal microscopy (FIG. 9B). On day 5 after co-culture, CAFs were found dispersed throughout the MCT, whereas ECs were found mostly on the edge of the MCT.
The inventors examined sensitivity of BT474-SCTs and -MCTs to lapatinib. […]

BT474-SCTs = assay: Sensitivity of BT474 single cell-line tumoroids (SCTs) on PNS to lapatinib, PrestoBlue cell viability; format: cell-based; conditions: Homo sapiens, BT-474, BT474-SCTs cultured on PNS, lapatinib 72 h
Protocol: as §1
The inventors examined sensitivity of BT474-SCTs and -MCTs to lapatinib. […] These include, IL-6, IL-8, vascular endothelial growth factor (VEGF), monocyte chemotactic protein 1 (MCP-1), platelet derived growth factor BB (PDGF-BB), dickkopf-1 (DKK-1, inhibitor of Wnt signaling pathway), osteoprotegerin (OPG, a negative regulator of bone remodeling) and MMP-3, which have been implicated in tumor metastasis, angiogenesis, cancer stem cell amplification or drug resistance. In addition, five tumoroid biomarkers that are found expressed abundantly in MCTs (vs SCTs) and can be considered as predictors of clinical efficacy for lapatinib, included, a) marker for cell proliferation: Ki67, and b) stromal derived factors: IL-6, MCP-1, VEGF and DKK-1 (FIG. 9D).

- IC50 (BT474-MCTs): > 10 µM
- IC50 (BT474-SCTs): < 2500 nM
SMILES: CS(=O)(=O)CCNCc1ccc(-c2ccc3ncnc(Nc4ccc(OCc5cccc(F)c5)c(Cl)c4)c3c2)o1 [lapatinib]
